From PubChem BioAssay (NCI)
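48-hour exposure; five concentrations; linearly interpolated endpoints. Abbreviation: GI50, concentration required for 50% inhibition of growth. At the TGI there is no net growth.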

Key:
Test in all cases: NCI-60 cell line screen, 48 h
BT-549 breast = system: BT-549 breast
NCI/ADR-RES ovarian = system: NCI/ADR-RES ovarian
T-47D breast = system: T-47D breast
SK-MEL-28 melanoma = system: SK-MEL-28 melanoma
UACC-257 melanoma = system: UACC-257 melanoma
EKVX NSCLC = system: EKVX NSCLC
SK-MEL-5 melanoma = system: SK-MEL-5 melanoma
HCT-15 colon = system: HCT-15 colon
ACHN renal = system: ACHN renal
LOX IMVI melanoma = system: LOX IMVI melanoma
NCI-H23 lung = system: NCI-H23 lung
OVCAR-5 ovarian = system: OVCAR-5 ovarian
SF-295 CNS = system: SF-295 CNS
MDA-MB-435 = system: MDA-MB-435
DU-145 prostate = system: DU-145 prostate
UACC-62 melanoma = system: UACC-62 melanoma
RPMI-8226 leukemia = system: RPMI-8226 leukemia
M14 melanoma = system: M14 melanoma
IGROV1 ovarian = system: IGROV1 ovarian
OVCAR-8 ovarian = system: OVCAR-8 ovarian
MOLT-4 leukemia = system: MOLT-4 leukemia
TK-10 renal = system: TK-10 renal
HCT-116 colon = system: HCT-116 colon
NCI-H522 lung = system: NCI-H522 lung
MDA-MB-231 breast = system: MDA-MB-231 breast
HOP-62 NSCLC = system: HOP-62 NSCLC
SW-620 colon = system: SW-620 colon
OVCAR-4 ovarian = system: OVCAR-4 ovarian
PC-3 prostate = system: PC-3 prostate
U251 CNS = system: U251 CNS
RXF 393 renal = system: RXF 393 renal
SF-539 CNS = system: SF-539 CNS
A498 renal = system: A498 renal
CAKI-1 renal = system: CAKI-1 renal
HS 578T breast = system: HS 578T breast
786-0 renal = system: 786-0 renal
OVCAR-3 ovarian = system: OVCAR-3 ovarian
UO-31 renal = system: UO-31 renal
COLO 205 colon = system: COLO 205 colon
A549 NSCLC = system: A549 NSCLC
MALME-3M melanoma = system: MALME-3M melanoma
SF-268 CNS = system: SF-268 CNS
NCI-H460 lung = system: NCI-H460 lung
SR leukemia = system: SR leukemia
SN12C renal = system: SN12C renal
HOP-92 NSCLC = system: HOP-92 NSCLC
MCF7 breast = system: MCF7 breast
K-562 leukemia = system: K-562 leukemia
SK-MEL-2 melanoma = system: SK-MEL-2 melanoma
CCRF-CEM leukemia = system: CCRF-CEM leukemia
SK-OV-3 ovarian = system: SK-OV-3 ovarian
NCI-H226 lung = system: NCI-H226 lung
HCC-2998 colon = system: HCC-2998 colon
KM12 colon = system: KM12 colon
SNB-19 CNS = system: SNB-19 CNS
HL-60(TB) leukemia = system: HL-60(TB) leukemia

In the case of `c1cc2ccc3cc2cc1CNCCN1CCNCc2ccc4ccc(cc4c2)CNCCN(CCNC3)CCNCc2ccc3ccc(cc3c2)CNCC1`, the GI50 (BT-549 breast) is reported as 2.51 µM, the TGI (BT-549 breast) is reported as 7.77 µM and the GI50 (NCI/ADR-RES ovarian) is reported as over 100 µM. It also gave a TGI (NCI/ADR-RES ovarian) of over 100 µM, a GI50 (T-47D breast) of 2.05 µM and a TGI (T-47D breast) of 7.54 µM. It also gave a GI50 (SK-MEL-28 melanoma) of 2.42 µM, a TGI (SK-MEL-28 melanoma) of 6.32 µM and a GI50 (UACC-257 melanoma) of 3.93 µM. The TGI (UACC-257 melanoma) was over 100 µM, the GI50 (EKVX NSCLC) was 4.84 µM and the TGI (EKVX NSCLC) was over 100 µM. The GI50 (SK-MEL-5 melanoma) was 56 µM, the TGI (SK-MEL-5 melanoma) was over 100 µM and the GI50 (HCT-15 colon) was 80.1 µM. It also gave a TGI (HCT-15 colon) of over 100 µM, a GI50 (ACHN renal) of 39.4 µM and a TGI (ACHN renal) of over 100 µM. For the same molecule, the GI50 (LOX IMVI melanoma) was 2.03 µM, the TGI (LOX IMVI melanoma) was 4.42 µM and the GI50 (NCI-H23 lung) was 1.98 µM. It also gave a TGI (NCI-H23 lung) of 5.99 µM, a GI50 (OVCAR-5 ovarian) of 2.38 µM and a TGI (OVCAR-5 ovarian) of 7.96 µM. It also gave a GI50 (SF-295 CNS) of 11.9 µM, a TGI (SF-295 CNS) of 38.9 µM and a GI50 (MDA-MB-435) of 2.41 µM. It also gave a TGI (MDA-MB-435) of 6.25 µM, a GI50 (DU-145 prostate) of 2.1 µM and a TGI (DU-145 prostate) of 5.83 µM. For the same molecule, the GI50 (UACC-62 melanoma) was 2.37 µM, the TGI (UACC-62 melanoma) was 6.95 µM and the GI50 (RPMI-8226 leukemia) was 1.62 µM. For the same molecule, the TGI (RPMI-8226 leukemia) was 6.03 µM, the GI50 (M14 melanoma) was 3.27 µM and the TGI (M14 melanoma) was 13.1 µM. For the same molecule, the GI50 (IGROV1 ovarian) was 2.89 µM, the TGI (IGROV1 ovarian) was 13.1 µM and the GI50 (OVCAR-8 ovarian) was 3.61 µM. For the same molecule, the TGI (OVCAR-8 ovarian) was over 100 µM, the GI50 (MOLT-4 leukemia) was 2.82 µM and the TGI (MOLT-4 leukemia) was 9.35 µM. The GI50 (TK-10 renal) was 18.6 µM, the TGI (TK-10 renal) was 64.8 µM and the GI50 (HCT-116 colon) was 2.57 µM. For the same molecule, the TGI (HCT-116 colon) was 8.82 µM, the GI50 (NCI-H522 lung) was 0.431 µM and the TGI (NCI-H522 lung) was 5.56 µM. For the same molecule, the GI50 (MDA-MB-231 breast) was 1.91 µM, the TGI (MDA-MB-231 breast) was 6.99 µM and the GI50 (HOP-62 NSCLC) was 2.99 µM. The TGI (HOP-62 NSCLC) was 13.2 µM, the GI50 (SW-620 colon) was 3.36 µM and the TGI (SW-620 colon) was over 100 µM. It also gave a GI50 (OVCAR-4 ovarian) of 2.89 µM, a TGI (OVCAR-4 ovarian) of 7.22 µM and a GI50 (PC-3 prostate) of 2.22 µM. It also gave a TGI (PC-3 prostate) of 6.99 µM, a GI50 (U251 CNS) of 1.48 µM and a TGI (U251 CNS) of 10.4 µM. The GI50 (RXF 393 renal) was 17.3 µM, the TGI (RXF 393 renal) was 39.4 µM and the GI50 (SF-539 CNS) was 1.89 µM. The TGI (SF-539 CNS) was 4.87 µM, the GI50 (A498 renal) was 10.9 µM and the TGI (A498 renal) was 30.4 µM. For the same molecule, the GI50 (CAKI-1 renal) was 41 µM, the TGI (CAKI-1 renal) was over 100 µM and the GI50 (HS 578T breast) was 3 µM. The TGI (HS 578T breast) was 17.4 µM, the GI50 (786-0 renal) was 10.4 µM and the TGI (786-0 renal) was 35.4 µM. For the same molecule, the GI50 (OVCAR-3 ovarian) was 2.66 µM, the TGI (OVCAR-3 ovarian) was 8.04 µM and the GI50 (UO-31 renal) was over 100 µM. It also gave a TGI (UO-31 renal) of over 100 µM, a GI50 (COLO 205 colon) of 2.12 µM and a TGI (COLO 205 colon) of 6.86 µM. The GI50 (A549 NSCLC) was 2.62 µM, the TGI (A549 NSCLC) was over 100 µM and the GI50 (MALME-3M melanoma) was 2.11 µM. The TGI (MALME-3M melanoma) was 5.58 µM, the GI50 (SF-268 CNS) was 2.25 µM and the TGI (SF-268 CNS) was 6.44 µM. It also gave a GI50 (NCI-H460 lung) of 2.95 µM, a TGI (NCI-H460 lung) of 10.8 µM and a GI50 (SR leukemia) of 2.13 µM. The TGI (SR leukemia) was 7.87 µM, the GI50 (SN12C renal) was 1.71 µM and the TGI (SN12C renal) was 8.57 µM. The GI50 (HOP-92 NSCLC) was 1.31 µM, the TGI (HOP-92 NSCLC) was 5.41 µM and the GI50 (MCF7 breast) was 0.392 µM. It also gave a TGI (MCF7 breast) of 5.15 µM, a GI50 (K-562 leukemia) of 1.91 µM and a TGI (K-562 leukemia) of over 100 µM. For the same molecule, the GI50 (SK-MEL-2 melanoma) was 2.36 µM, the TGI (SK-MEL-2 melanoma) was 5.89 µM and the GI50 (CCRF-CEM leukemia) was 2.34 µM. The TGI (CCRF-CEM leukemia) was over 100 µM, the GI50 (SK-OV-3 ovarian) was 2.8 µM and the TGI (SK-OV-3 ovarian) was 8.3 µM. It also gave a GI50 (NCI-H226 lung) of 2.27 µM, a TGI (NCI-H226 lung) of 6.11 µM and a GI50 (HCC-2998 colon) of 2.27 µM. The TGI (HCC-2998 colon) was 6.4 µM, the GI50 (KM12 colon) was 2.54 µM and the TGI (KM12 colon) was 6.47 µM. The GI50 (SNB-19 CNS) was 2.66 µM, the TGI (SNB-19 CNS) was 8.38 µM and the GI50 (HL-60(TB) leukemia) was 2.32 µM. It also gave a TGI (HL-60(TB) leukemia) of 5.53 µM.
